16 compounds from PubChem BioAssay (NCI) can be followed below.

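Following 48 hours of exposure in 96-well plates, responses at five concentrations were used to interpolate endpoints linearly. Here, GI50 denotes the concentration required for 50% inhibition of growth. Definition used: TGI = concentration required for complete inhibition of growth.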 A value given as a limit tells only on which side of the number the result lay.

Holding throughout (experiment): growth of human tumour cells (NCI), 48 h
For assay [1], the system named is SN12C renal.
Assay [2] deals with MALME-3M melanoma.
The subject of assay [3] is NCI-H460 lung.
In assay [4] the test system is HCT-15 colon.
For assay [5], the system named is OVCAR-4 ovarian.
The subject of assay [6] is HCT-116 colon.
Assay [7] deals with SR leukemia.
Assay [8] relates to SF-539 CNS.
Assay [9] concerns SK-OV-3 ovarian.

`COC(=O)C(CCS(=O)(=O)CC(=O)C(=O)Nc1cccc(C(C)=O)c1)C(=O)OC`: the TGI is more than 100 µM in [1]; more than 100 µM in [2]; more than 92 µM in assay [3]; more than 100 µM in assay [4]; more than 100 µM in assay [5]; more than 100 µM in [6]. For the same compound, the TGI in [7] was 50 µM; in assay [8], more than 100 µM; in assay [9], more than 100 µM.

Consider `O=C1NC(=S)NC(=O)C1=Cc1cc2c(cc1[N+](=O)[O-])OCO2`, for which the TGI in assay [1], in assay [2], in assay [3], in assay [4], in [5] and in assay [6] was more than 100 µM throughout. In addition, the TGI in assay [7], in assay [8] and in assay [9] was more than 100 µM throughout.

As for `CCCN(CCCCC(NC(C)=O)C(=O)NCc1ccccc1)C(=O)NCCCl` (stereo not drawn), the TGI in [1], in assay [2], in [3], in [4], in assay [5] and in assay [6] was more than 100 µM each time. Also, the TGI in assay [7] and in assay [8] was more than 100 µM throughout.

As to `CCCCCCCCCCC/C(=N/O)c1ccc(O)c2ncccc12`, the TGI in assay [2] is 12.6 µM; in assay [3], 17 µM; in assay [5], 19.2 µM; in [6], 59.9 µM; in assay [8], 4.91 µM.

On to `N#CC(C(=O)/C(=N/N)C(C#N)c1ccc(Cl)cc1)c1ccc(Cl)cc1` (stereo not drawn), for which the TGI in [1], in assay [2], in assay [3], in assay [4], in assay [5] and in [6] was more than 100 µM each time. The compound further showed a TGI in assay [8] of more than 100 µM.

As to `CC(C)N(C(=O)C12C3C4C5(C#N)C3C1(I)C5C42I)C(C)C` (stereo not drawn), the TGI in assay [1] is more than 100 µM; in assay [2] it was more than 100 µM; in assay [3] it was more than 100 µM; in [4], more than 57.7 µM; in assay [5] it was more than 77.4 µM; in assay [6], 34.3 µM. The TGI in assay [7], in [8] and in assay [9] was more than 100 µM in each case.

Take `Cc1ccccc1-c1c(N)nc(NC#N)nc1C(=O)Nc1ccccc1`: the TGI in assay [1], in assay [2], in assay [3], in assay [4], in assay [5] and in assay [6] was more than 100 µM in each case. The TGI in [7], in assay [8] and in assay [9] was more than 100 µM throughout.

Consider `Cc1cccc(C(C)(C)C)c1NC(=O)C(=O)C(C(=O)/C=C\c1ccccc1)C1OC(=O)c2ccccc21` (stereo not drawn), for which the TGI in assay [1], in [2], in assay [3], in [4], in assay [5] and in assay [6] was more than 100 µM each time. Besides, the TGI in [7], in assay [8] and in assay [9] was more than 100 µM throughout.

In the case of `CCOc1ccc(N=Cc2cccc3cccnc23)cc1`, the TGI in assay [1], in assay [2], in assay [3], in assay [4], in assay [5] and in assay [6] was more than 100 µM throughout. For the same compound, the TGI in assay [8] and in [9] was more than 100 µM each time.

In the case of `CC(O)/C=C/C(CCC(C)CO)C(C)C` (stereo not drawn), the TGI in assay [1], in [2], in [3], in assay [4], in assay [5] and in assay [6] was more than 100 µM throughout. The TGI in assay [8] and in assay [9] was more than 100 µM throughout.

For the compound `O=C1C=C[C@@]23CC1C(O)C[C@H]2C=Cc1ccccc13` (stereo partly drawn), the TGI in [1], in assay [2], in assay [3], in assay [4], in assay [5] and in [6] was more than 100 µM in each case. Further, the TGI in [8] and in assay [9] was more than 100 µM each time.

For the compound `CCCCCCCCCCCCCCCCCC(=O)OCC(CN(C)CCN(C)C)OC(=O)CCCCCCCCCCCCCCCCC` (stereo not drawn), the TGI in assay [1], in [2], in assay [3], in assay [4], in assay [5] and in assay [6] was more than 100 µM each time. Also, the TGI in assay [7] was 64.2 µM; in assay [9], more than 100 µM.

For the compound `CSc1nc(NC2OCC(OC(C)=O)C(OC(C)=O)C2OC(C)=O)c2c(OC(C)=O)c(C)c(=O)oc2n1` (stereo not drawn), the TGI in assay [1], in [2], in assay [3], in assay [4], in [5] and in [6] was more than 100 µM each time. The TGI in assay [8] and in assay [9] was more than 100 µM in each case.

For the compound `Cc1c(/C=N/NS(=O)(=O)c2ccccc2)no[n+]1[O-]`, the TGI in assay [1], in assay [2], in assay [4], in assay [5], in assay [6] and in assay [7] was more than 100 µM in each case. The TGI in assay [8] and in assay [9] was more than 100 µM each time.

Regarding `COc1ccc(/C=N/N=C(\N)NO)cc1OC`, the TGI in assay [1], in [2], in [3], in assay [4], in assay [5] and in assay [6] was more than 100 µM throughout. Also, the TGI in [7] was more than 100 µM; in assay [8], 64.9 µM; in [9] it was more than 100 µM.

In the case of `[Cl][Bi]([O]c1ccccn1)[O]c1ccccn1`, the GI50 in assay [1], in assay [2], in [4], in assay [5], in assay [6] and in assay [7] was more than 100 µM in each case. Moreover, the GI50 in assay [8] and in assay [9] was more than 100 µM throughout. Further, the TGI in assay [1], in [2], in assay [4], in assay [5], in assay [6] and in assay [7] was more than 100 µM throughout. Further, the TGI in [8] and in [9] was more than 100 µM throughout.
